Laboratory results: patent publication US9376470B2, “Polypeptide having angiogenesis-inducing activity and antibacterial activity, and use thereof for medical purposes” (FunPep Inc., priority 2008, dated 2016)
In brackets after ≈: the same amount, converted by molar mass. Peptide text beside a SMILES is read from it.

Key:
[1] = test system: Staphylococcus aureus ATCC29213; experiment: microbe, parasite or virus in culture; format: cell-based; conditions: 37° C., 20 hours
Procedure: (§1) ATP (%) of the antibacterial activity was measured in the same manner as mentioned above, and the “minimum inhibitory concentration (MIC)” was measured as follows. MIC is the lowest concentration of an agent that may inhibit the growth of a bacterium. MIC is used as a parameter for the efficacy of an antibacterial agent, for the strength of bacterial sensitivity, or the like. The bacteria can grow (proliferate) when the concentration is not higher than MIC, and cannot grow when the concentration is higher than MIC. […] (CLSI), but, in this Example, its measurement was carried out by a broth microdilution method in accordance with “M100-S17/M7-A7” (Performance Standards for Antimicrobial Susceptibility Testing; Seventeenth Informational Supplement, Vol. 27 No. 1) published by CLSI on January, 2007. That is, sensitivity test of agents was carried out using a microtiter plate or test tubes. The bacteria were cultured in the liquid media for 4 to 6 hours, and thereafter absorbances at A600 were measured. Bacterial suspensions were diluted with Mueller-Hinton broth (MHB) according to McFarland #0.5. Each strain was added so as to attain about 10^5 CFU/ml (final concentration). Each peptide was prepared to an optional concentration, and the solutions were serially diluted from the concentration. The polypeptide at each concentration stage was added to a microplate or test tubes, and the bacterial suspension was added thereto. […] The plate was incubated at 37° C. for 20 hours, the lowest concentration where bacterial growth was inhibited was regarded as the minimum inhibitory concentration. With respect to each strain, Escherichia coli: ATCC 25922 (Escherichia coli ATCC 25922), Pseudomonas aeruginosa: ATCC 27853 (Pseudomonas aeruginosa ATCC 27853), Staphylococcus aureus: ATCC29213 (Staphylococcus aureus ATCC29213), Klebsiella pneumoniae: JCM 1662 (Klebsiella pneumoniae JCM 1662), enterobacteria (1): JCM 1232 (Enterobacter cloacae JCM 1232), enterobacteria (2): JCM 1235 (Enterobacter aerogenes JCM 1235), and Staphylococcus epidermidis: JCM 2414 (Staphylococcus epidermidis JCM 2414), were used. […] As the concentrations of the agents in ATP assay, the concentrations as described in the Tables were used.

[2] = test system: Staphylococcus epidermidis JCM 2414; experiment: microbe, parasite or virus in culture; format: cell-based; conditions: 37° C., 20 hours
Procedure: as §1

[3] = test system: Staphylococcus aureus ATCC29213; experiment: Antibacterial activity, ATP assay (BacTiter-Glo); format: cell-based; conditions: for ATP (%) mean, Staphylococcus aureus: Table 4-1, ATP assay concentration: peptides 10, TOB 1.0, OX 0.5 μg/ml; for antibacterial activity against Staphylococcus aureus compared with AG30-5C: 10 μg/mL, ATP assay
Procedure: (§2) The antibacterial activity of the polypeptides was measured using an ATP assay method. That is, using BacTiter-Glo Microbial Cell Viability Assay kit available from PROMEGA, the antibacterial activity of the peptides was evaluated from the viability of bacteria. […] With respect to the strains, Staphylococcus aureus ATCC29213 (S. aureus ATCC29213) as Gram-positive bacteria, or, alternatively, Pseudomonas aeruginosa (P. aeruginosa ATCC27853) as Gram-negative bacteria, was used. The bacteria were cultured in media for 3 to 4 hours, and thereafter absorbances at A600 were measured. Bacterial suspensions were diluted with Mueller-Hinton broth (MHB) according to McFarland #0.5. Each strain was added so as to attain about 0.5−1×10^5 CFU/mL (final concentration) in terms of Escherichia coli. […] A solution to which the peptides were not added was considered as a negative control, and a solution to which tobramycin (TOB) was added was considered as a positive control. […] Relative values were calculated by comparison with the negative control, and these values were regarded as the viability. ATP (%) of the antibacterial activity was measured in the same manner as mentioned above, and the “minimum inhibitory concentration (MIC)” was measured as follows. MIC is the lowest concentration of an agent that may inhibit the growth of a bacterium. MIC is used as a parameter for the efficacy of an antibacterial agent, for the strength of bacterial sensitivity, or the like. The bacteria can grow (proliferate) when the concentration is not higher than MIC, and cannot grow when the concentration is higher than MIC. Its measurement is carried out according to a method defined as a standard method by Japanese Society of Chemotherapy or CLINICAL AND LABORATORY […] (CLSI), but, in this Example, its measurement was carried out by a broth microdilution method in accordance with “M100-S17/M7-A7” (Performance Standards for Antimicrobial Susceptibility Testing; Seventeenth Informational Supplement, Vol. 27 No. 1) published by CLSI on January, 2007. That is, sensitivity test of agents was carried out using a microtiter plate or test tubes. With respect to each strain, Escherichia coli: ATCC 25922 (Escherichia coli ATCC 25922), Pseudomonas aeruginosa: ATCC 27853 (Pseudomonas aeruginosa ATCC 27853), Staphylococcus aureus: ATCC29213 (Staphylococcus aureus ATCC29213), Klebsiella pneumoniae: JCM 1662 (Klebsiella pneumoniae JCM 1662), enterobacteria (1): JCM 1232 (Enterobacter cloacae JCM 1232), enterobacteria (2): JCM 1235 (Enterobacter aerogenes JCM 1235), and Staphylococcus epidermidis: JCM 2414 (Staphylococcus epidermidis JCM 2414), were used. […] As the concentrations of the agents in ATP assay, the concentrations as described in the Tables were used.

[4] = test system: Pseudomonas aeruginosa ATCC27853; experiment: Antibacterial activity, ATP assay (BacTiter-Glo); format: cell-based; conditions: for ATP (%) mean, Pseudomonas aeruginosa: Table 4-1, ATP assay concentration: peptides 10, TOB 1.0, CPFX 1.0, OX 0.5, MEPM 1.0 μg/ml; for antibacterial activity against Pseudomonas aeruginosa compared with AG30-5C: 10 μg/mL, ATP assay
Procedure: as §2

[5] = test system: Crl:CD (SD) rats, cut wound; experiment: Effect to heal cut wounds, rat cut-wound model; format: in vivo; conditions: for wound closing tension: 10, 100 and 1000 μg/mL, 50 μL dropwise once a day, measured on day 6; for scars of cut wounds / cicatrization by visual observation, compared with the bFGF formulation: rat cut-wound model, data not shown
Procedure: Next, using rat cut-wound model, the effect of the five polypeptides SR-1 to 5 to heal cut wounds in vivo was evaluated. As described in Tetsuaki Yamaura et al. (Oyo Yakuri (Pharmacometrics) 22, 565-579 (1981)), the rat cut-wound model was produced and the wound closing tension was measured. That is, a cut wound of 30 to 36 mm was made on the back of Crl:CD (SD) rats (male, 7-week old, obtained from Charles River Laboratories Japan, Inc.) using a safety razor, and sutured at 3 points equally spaced. The day when this surgical treatment was applied was regarded as […] (day 0). […] Additions of 50 μL physiological saline were regarded as negative controls (Saline). […] The sutures were removed day 3, and the wound closing tension was measured on day 6.

[6] = test system: Pseudomonas aeruginosa ATCC 27853; experiment: microbe, parasite or virus in culture; format: cell-based; conditions: 37° C., 20 hours
Procedure: as §1

SMILES | MIC [1] | MIC ([2]; Staphylococcus epidermidis, JCM2414) | ATP (%) mean, Staphylococcus aureus [3] | ATP (%) mean, Pseudomonas aeruginosa [4] | wound closing tension [5] | scars of cut wounds / cicatrization by visual observation, compared with the bFGF formulation [5] | MIC Staphylococcus epidermidis [2] | antibacterial activity against Staphylococcus aureus compared with AG30-5C [3] | antibacterial activity against Pseudomonas aeruginosa compared with AG30-5C [4] | MIC Pseudomonas aeruginosa [6]
Cc1onc(-c2ccccc2)c1C(=O)N[C@@H]1C(=O)N2[C@@H]1SC(C)(C)[C@@H]2C(=O)O [OX, oxacillin, reference compound] | 0.12 to 0.5 µg/mL (≈ 0.299 to 1.25 µM) | 0.12 to 0.5 µg/mL (≈ 0.299 to 1.25 µM) | 72.8% | 83.1% | – | – | – | – | – | –
CC[C@H](C)[C@H](NC(=O)[C@H](CC(C)C)NC(=O)[C@H](CCCCN)NC(=O)[C@H](CC(C)C)NC(=O)[C@@H](N)CCSC)C(=O)N[C@@H](Cc1ccccc1)C(=O)N[C@@H](CC(C)C)C(=O)N[C@@H](Cc1c[nH]cn1)C(=O)N[C@@H](CCCNC(=N)N)C(=O)N[C@@H](CC(C)C)C(=O)N[C@@H](CCCCN)C(=O)N[C@@H](CCCNC(=N)N)C(=O)N[C@@H](CCSC)C(=O)N[C@@H](CCCNC(=N)N)C(=O)N[C@@H](CCCCN)C(=O)N[C@@H](CCCNC(=N)N)C(=O)N[C@@H](CC(C)C)C(=O)N[C@@H](CCCCN)C(=O)N[C@@H](CCCNC(=N)N)C(=O)N[C@@H](CCCCN)C(=O)O [SR-1] (H-MLKLIFLHRLKRMRKRLKRK-OH; N-terminus assumed) | – | – | 5.2% | 26.0% | effect of increasing the wound closing tension | cicatrization was hardly observed | 128< μg/mL | higher antibacterial activity against Staphylococcus aureus than AG30-5C | – | –
CC(C)C[C@H](NC(=O)[C@H](CCCCN)NC(=O)[C@H](CCCNC(=N)N)NC(=O)[C@H](CCCCN)NC(=O)[C@H](CC(C)C)NC(=O)[C@H](CCCNC(=N)N)NC(=O)[C@H](CCCCN)NC(=O)[C@H](CCCNC(=N)N)NC(=O)[C@H](CC(C)C)NC(=O)[C@H](CCCNC(=N)N)NC(=O)[C@H](CCCNC(=N)N)NC(=O)[C@H](CCCCN)NC(=O)[C@H](CC(C)C)NC(=O)[C@H](CCCNC(=N)N)NC(=O)[C@H](Cc1c[nH]cn1)NC(=O)[C@H](CC(C)C)NC(=O)[C@H](Cc1ccccc1)NC(=O)[C@H](CCCNC(=N)N)NC(=O)[C@H](CC(C)C)NC(=O)[C@@H](N)CCC(=O)O)C(=O)N[C@@H](CCCNC(=N)N)C(N)=O [SR-2] (H-ELRFLHRLKRRLRKRLKRKLR-NH2; N-terminus assumed) | – | – | 4.4% | 1.0% | – | cicatrization was hardly observed | – | higher antibacterial activity against Staphylococcus aureus than AG30-5C | higher antibacterial activity against Pseudomonas aeruginosa than AG30-5C | –
CSCC[C@H](NC(=O)[C@H](CCCNC(=N)N)NC(=O)[C@H](CCCCN)NC(=O)[C@H](CC(C)C)NC(=O)[C@H](CCCNC(=N)N)NC(=O)[C@H](Cc1c[nH]cn1)NC(=O)[C@H](CC(C)C)NC(=O)[C@H](Cc1ccccc1)NC(=O)[C@H](CCCNC(=N)N)NC(=O)[C@H](CC(C)C)NC(=O)[C@@H](N)CCC(=O)O)C(=O)N[C@@H](CCCNC(=N)N)C(=O)N[C@@H](CCCCN)C(=O)N[C@@H](CCCNC(=N)N)C(=O)N[C@@H](CC(C)C)C(=O)N[C@@H](CCCCN)C(=O)N[C@@H](CCCNC(=N)N)C(=O)N[C@@H](CCCCN)C(=O)N[C@@H](CC(C)C)C(=O)N[C@@H](CCCNC(=N)N)C(N)=O [SR-3] (H-ELRFLHRLKRMRKRLKRKLR-NH2; N-terminus assumed) | – | – | 3.5% | 3.3% | effect of increasing the wound closing tension | cicatrization was hardly observed | – | higher antibacterial activity against Staphylococcus aureus than AG30-5C | higher antibacterial activity against Pseudomonas aeruginosa than AG30-5C | –
CC[C@H](C)[C@H](NC(=O)[C@H](CC(C)C)NC(=O)[C@@H](N)CCCCN)C(=O)N[C@@H](Cc1ccccc1)C(=O)N[C@@H](CC(C)C)C(=O)N[C@@H](Cc1c[nH]cn1)C(=O)N[C@@H](CCCNC(=N)N)C(=O)N[C@@H](CC(C)C)C(=O)N[C@@H](CCCCN)C(=O)N[C@@H](CCCNC(=N)N)C(=O)N[C@@H](CCSC)C(=O)N[C@@H](CCCNC(=N)N)C(=O)N[C@@H](CCCCN)C(=O)N[C@@H](CCCNC(=N)N)C(=O)N[C@@H](CC(C)C)C(=O)N[C@@H](CCCCN)C(=O)N[C@@H](CCCNC(=N)N)C(=O)N[C@@H](CCCCN)C(=O)N[C@@H](CC(C)C)C(=O)N[C@@H](CCCNC(=N)N)C(N)=O [SR-4] (H-KLIFLHRLKRMRKRLKRKLR-NH2; N-terminus assumed) | – | – | 1.0% | 9.8% | effect of increasing the wound closing tension | cicatrization was hardly observed | – | higher antibacterial activity against Staphylococcus aureus than AG30-5C | – | –
CSCC[C@H](NC(=O)[C@H](CCCNC(=N)N)NC(=O)[C@@H](N)CCCCN)C(=O)N[C@@H](CCCNC(=N)N)C(=O)N[C@@H](CCCCN)C(=O)N[C@@H](CCCNC(=N)N)C(=O)N[C@@H](CC(C)C)C(=O)N[C@@H](CCCCN)C(=O)N[C@@H](CCCNC(=N)N)C(=O)N[C@@H](CCCCN)C(=O)N[C@@H](CC(C)C)C(=O)N[C@@H](CCCNC(=N)N)C(=O)N[C@@H](CC(C)C)C(=O)N[C@@H](Cc1c[nH]c2ccccc12)C(=O)N[C@@H](Cc1c[nH]cn1)C(=O)N[C@@H](CCCNC(=N)N)C(=O)N[C@@H](CCCCN)C(=O)N[C@@H](CCCNC(=N)N)C(=O)N[C@@H](Cc1ccc(O)cc1)C(=O)N[C@@H](CCCCN)C(=O)O [SR-5] (H-KRMRKRLKRKLRLWHRKRYK-OH; N-terminus assumed) | – | – | 24.2% | 16.4% | effect of increasing the wound closing tension | – | – | – | – | 128≦ μg/mL
